# Laboratory results from US9371292B2, “Quinazoline derivative, preparation method therefor, intermediate, composition and application thereof” (SHANGHAI PHARMACEUTICALS HOLDINGS CO., LTD., priority 2011, dated 2016).
# Experiments:
# EGFR tyrosine kinase = target: T1, EGFR tyrosine kinase (Homo sapiens, UniProt P00533); assay: HTRF assay, inhibition of EGFR tyrosine kinase; type: biochemical; details: HTRF method
# T1 construct: purchased Sigma Aldrich
# Experimental: The activity of inhibitory against the kinase of the test compound is expressed by IC50. The assays are performed by Homogeneous time-resolved fluorescence (HTRF) method which is as follows: a series of synthesized analogues with gradient concentration are incubated for 5 minutes in enzymatic solution with specific concentration (for EGFR) at room temperature. Then proper amount of substrate and ATP are added into the reaction mixture to start the enzyme reaction. The assays of the specific concentration of compound is measured by Flexstation III of Molecular device company after the stop buffer and detecting liquid are added to the enzyme reaction system and hatch at room temperature for 1 hour. And the activity of inhibitory against the kinase of the test compound with different concentration will be calculated, then according to the 4-parameter equation, fit the inhibitory activity of the test compound with different concentration to get the IC50. EGFR is purchased from Sigma Aldrich. The HTRF KinEASE-TK is purchased from Cisbio Bioassays. ATP is purchased from Sigma Aldrich.
# [1] = system: NCI-H1975 L858R T790M cell; assay: Proliferation inhibition, H1975 cells (CellTiter-Glo); type: cell-based; details: Homo sapiens, 48 hours
# Experimental: (§1) This example is to determine the proliferation inhibitory activity against wide type of high expression cell lines A431 of EGFR and mutant cell lines NCI-H1975^L858RT790M, the proliferation inhibitory activity in cell-based level of compound is expressed by IC50. The test method is as follows: both cell lines are purchased from American type culture collection (ATCC). The cells are seeded in a white and opaque 384-well culture plate with a proper concentration (A431: 20000 cells/ml medium; H1975: 15000 cells/ml medium), cultured at 37° C. with 5% CO2 for 24 hrs, a series of medicine with gradient concentration is added, generally 10 concentrations, cultured for another 48 hours under the previous conditions. The assays of the proliferation inhibitory activity against the A431 and H1975 cell of the test compounds are performed by the CellTiter-Glo Luminescent Cell Viability Assay and calculate the proliferation inhibitory activity of compound with different concentrations. CellTiter-Glo Luminescent Cell Viability Assay is purchased from Promega. Fit the data of proliferation inhibitory activity against A431 and H1975 of compounds with different concentrations with 4-parameter equation.
# A431 cell = assay: Proliferation inhibition, A431 cells (CellTiter-Glo); type: cell-based; details: Homo sapiens, A-431, 48 hours
# Experimental: as §1
# T1 sequence (P00533 25-1210): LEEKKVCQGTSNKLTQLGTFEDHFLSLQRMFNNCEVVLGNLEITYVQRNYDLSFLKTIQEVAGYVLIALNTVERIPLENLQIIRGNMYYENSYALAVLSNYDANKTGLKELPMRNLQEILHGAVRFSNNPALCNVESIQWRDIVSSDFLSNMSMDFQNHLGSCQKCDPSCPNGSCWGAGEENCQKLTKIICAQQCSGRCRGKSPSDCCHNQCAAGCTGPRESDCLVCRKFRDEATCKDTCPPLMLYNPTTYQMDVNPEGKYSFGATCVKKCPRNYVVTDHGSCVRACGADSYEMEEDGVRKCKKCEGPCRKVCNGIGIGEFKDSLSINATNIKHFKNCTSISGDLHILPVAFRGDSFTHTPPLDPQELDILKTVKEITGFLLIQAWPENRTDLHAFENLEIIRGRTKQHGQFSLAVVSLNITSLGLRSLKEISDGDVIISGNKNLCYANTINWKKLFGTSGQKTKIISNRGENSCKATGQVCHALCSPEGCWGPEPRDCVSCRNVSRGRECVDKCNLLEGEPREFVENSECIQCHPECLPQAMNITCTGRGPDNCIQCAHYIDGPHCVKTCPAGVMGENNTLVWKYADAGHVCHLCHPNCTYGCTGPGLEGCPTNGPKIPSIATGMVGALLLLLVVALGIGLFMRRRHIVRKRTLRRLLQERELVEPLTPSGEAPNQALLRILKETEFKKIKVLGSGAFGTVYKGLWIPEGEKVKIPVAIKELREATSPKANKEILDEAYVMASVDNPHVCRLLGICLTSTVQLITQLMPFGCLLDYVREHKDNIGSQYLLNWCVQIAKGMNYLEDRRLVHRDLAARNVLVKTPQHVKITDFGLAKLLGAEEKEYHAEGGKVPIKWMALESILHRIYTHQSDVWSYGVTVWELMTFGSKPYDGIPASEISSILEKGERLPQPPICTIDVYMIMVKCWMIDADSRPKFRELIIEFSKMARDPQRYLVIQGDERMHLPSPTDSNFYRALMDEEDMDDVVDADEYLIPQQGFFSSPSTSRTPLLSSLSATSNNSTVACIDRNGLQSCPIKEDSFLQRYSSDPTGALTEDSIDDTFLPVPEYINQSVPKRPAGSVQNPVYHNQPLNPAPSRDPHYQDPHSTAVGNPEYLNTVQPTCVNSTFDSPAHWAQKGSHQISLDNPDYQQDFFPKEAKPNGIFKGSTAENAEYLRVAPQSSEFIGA
SMILES,IC50 (EGFR tyrosine kinase),IC50 [1],IC50 (A431 cell)
"C=C(F)C(=O)Nc1cc2c(Nc3ccc(F)c(Cl)c3)ncnc2cc1OC1CCN(C)C1 (stereo in doubt) [Compound 64, (S)-N-[4-(3-chloro-4-fluoro-phenylamino)-7-(1-methyl-pyrrolidin-3-yloxy)-quinazolin-6-yl]-2-fluoro-acrylamide]",4.5 nM,2700 nM,3600 nM
"C=C(F)C(=O)Nc1cc2c(Nc3ccc(Br)cc3F)ncnc2cc1OCCCN1CCOCC1 [Compound 23, N-[4-(4-Bromo-2-fluoro-phenylamino)-7-(3-morpholin-4-yl-propoxy)-quinazolin-6-yl]-2-fluoro-acrylamide]",1.6 nM,3000 nM,1300 nM
"C=C(F)C(=O)Nc1cc2c(Nc3ccc(F)c(Cl)c3F)ncnc2cc1OCCCN1CCOCC1 [Compound 24, N-[4-(3-chloro-2,4-difluoro-phenylamino)-7-(3-morpholin-4-yl-propoxy)-quinazolin-6-yl]-2-fluoro-acrylamide]",0.19 nM,2200 nM,1300 nM
"C#Cc1cccc(Nc2ncnc3cc(OCCCN4CCOCC4)c(NC(=O)C(=C)F)cc23)c1 [Compound 25, N-[4-(3-ethynyl-phenylamino)-7-(3-morpholin-4-yl-propoxy)-quinazolin-6-yl]-2-fluoro-acrylamide]",0.19 nM,1900 nM,1200 nM
"C=C(F)C(=O)Nc1cc2c(Nc3cccc(Cl)c3F)ncnc2cc1OCCCN1CCOCC1 [Compound 26, N-[4-(3-chloro-2-fluoro-phenylamino)-7-(3-morpholin-4-yl-propoxy)-quinazolin-6-yl]-2-fluoro-acrylamide]",0.35 nM,5400 nM,4500 nM
"C=C(F)C(=O)Nc1cc2c(Nc3cc(OC)c(Cl)cc3Cl)ncnc2cc1OCCCN1CCOCC1 [Compound 27, N-[4-(2,4-dichloro-5-methoxy-phenylamino)-7-(3-morpholin-4-yl-propoxy)-quinazolin-6-yl]-2-fluoro-acrylamide]",,2700 nM,
"C=C(F)C(=O)Nc1cc2c(Nc3cccc(Br)c3)ncnc2cc1OCCCN1CCOCC1 [Compound 28, N-[4-(3-bromo-phenylamino)-7-(3-morpholin-4-yl-propoxy)-quinazolin-6-yl]-2-fluoro-acrylamide]",0.32 nM,1400 nM,29000 nM
"C=C(F)C(=O)Nc1cc2c(Nc3ccc(OCc4cccc(F)c4)c(Cl)c3)ncnc2cc1OCCCN1CCOCC1 [Compound 29, N-[4-[3-chloro-4-(3-fluoro-benzyloxy)-phenylamino]-7-(3-morpholin-4-yl-propoxy)-quinazolin-6-yl]-2-fluoro-acrylamide]",3.3 nM,1900 nM,5900 nM
"C=C(F)C(=O)Nc1cc2c(Nc3ccc(Cl)c(Cl)c3F)ncnc2cc1OCCCN1CCOCC1 [Compound 30, N-[4-(3,4-dichloro-2-fluoro-phenylamino)-7-(3-morpholin-4-yl-propoxy)-quinazolin-6-yl]-2-fluoro-acrylamide]",0.22 nM,1500 nM,520 nM
"C=C(F)C(=O)Nc1cc2c(Nc3ccc(F)cc3F)ncnc2cc1OCCCN1CCOCC1 [Compound 31, N-[4-(2,4-difluoro-phenylamino)-7-(3-morpholin-4-yl-propoxy)-quinazolin-6-yl]-2-fluoro-acrylamide]",1.4 nM,6000 nM,6500 nM
"C=C(Cl)C(=O)Nc1cc2c(Nc3ccc(F)c(Cl)c3)ncnc2cc1OCCCN1CCOCC1 [Compound 41, N-[4-(3-chloro-4-fluoro-phenylamino)-7-(3-morpholin-4-yl-propoxy)-quinazolin-6-yl]-2-chloro-acrylamide]",0.37 nM,,
"C=C(F)C(=O)Nc1cc2c(Nc3ccc(F)c(Cl)c3)ncnc2cc1OC1CCN(C)CC1 [Compound 49, N-[4-(3-chloro-4-fluoro-phenylamino)-7-(1-methyl-piperidin-4-yloxy)-quinazolin-6-yl]-2-fluoro-acrylamide]",,5600 nM,8600 nM

# The remaining lines, values ahead:
IC50 (EGFR tyrosine kinase),IC50 [1],IC50 (A431 cell),SMILES
,1000 nM,,"COc1cc2ncnc(Nc3ccc(F)c(Cl)c3)c2cc1NC(=O)/C(F)=C/CN1CCCCC1 [Compound 8-1, (Z)—N-(4-((3-chloro-4-fluorophenyl)amino)-7-methoxyquinazolin-6-yl)-2-fluoro-4-(piperidin-1-yl)but-2-enamide]"
,,2100 nM,"COc1cc2ncnc(Nc3ccc(F)c(Cl)c3)c2cc1NC(=O)/C(F)=C\CN1CCCCC1 [Compound 8-2, (E)-N-(4-((3-chloro-4-fluorophenyl)amino)-7-methoxyquinazolin-6-yl)-2-fluoro-4-(piperidin-1-yl)but-2-enamide]"
0.57 nM,,,"CCOc1cc2ncnc(Nc3ccc(OCc4ccccn4)c(Cl)c3)c2cc1NC(=O)/C(F)=C/CN(C)C [Compound 19-1, (Z)-N-(4-((3-chloro-4-(pyridin-2-ylmethoxy)phenyl)amino)-7-ethoxyquinazolin-6-yl)-4-(dimethylamino)-2-fluorobut-2-enamide]"
0.89 nM,1100 nM,,"CCOc1cc2ncnc(Nc3ccc(OCc4ccccn4)c(Cl)c3)c2cc1NC(=O)/C(F)=C\CN(C)C [Compound 19-2, (E)-N-(4-((3-chloro-4-(pyridin-2-ylmethoxy)phenyl)amino)-7-ethoxyquinazolin-6-yl)-4-(dimethylamino)-2-fluorobut-2-enamide]"
,4300 nM,12000 nM,"O=C(Nc1cc2c(Nc3ccc(F)c(Cl)c3)ncnc2cc1O[C@H]1CCOC1)/C(F)=C/CN1CCOCC1 [Compound 20-1, (S,Z)-N-(4-((3-chloro-4-fluorophenyl)amino)-7-((tetrahydrofuran-3-yl)oxy)quinazolin-6-yl)-2-fluoro-4-morpholinobut-2-enamide]"
,2300 nM,> 100000 nM,"O=C(Nc1cc2c(Nc3ccc(F)c(Cl)c3)ncnc2cc1O[C@H]1CCOC1)/C(F)=C\CN1CCOCC1 [Compound 20-2, (S,E)-N-(4-((3-chloro-4-fluorophenyl)amino)-7-((tetrahydrofuran-3-yl)oxy)quinazolin-6-yl)-2-fluoro-4-morpholinobut-2-enamide]"
0.16 nM,1200 nM,98000 nM,"CN(C)C/C=C(\F)C(=O)Nc1cc2c(Nc3ccc(F)c(Cl)c3)ncnc2cc1O[C@H]1CCOC1 [Compound 21-1, (S,Z)-N-(4-((3-chloro-4-fluorophenyl)amino)-7-((tetrahydrofuran-3-yl)oxy)quinazolin-6-yl)-4-(dimethylamino)-2-fluorobut-2-enamide]"
0.31 nM,1500 nM,3100 nM,"CN(C)C/C=C(/F)C(=O)Nc1cc2c(Nc3ccc(F)c(Cl)c3)ncnc2cc1O[C@H]1CCOC1 [Compound 21-2, (S,E)-N-(4-((3-chloro-4-fluorophenyl)amino)-7-((tetrahydrofuran-3-yl)oxy)quinazolin-6-yl)-4-(dimethylamino)-2-fluorobut-2-enamide]"
0.53 nM,3700 nM,8100 nM,"COc1cc2ncnc(Nc3ccc(F)c(Cl)c3)c2cc1NC(=O)/C(F)=C/CN1CCOCC1 [Compound 22-1, (Z)-N-(4-((3-chloro-4-fluorophenyl)amino)-7-methoxyquinazolin-6-yl)-2-fluoro-4-morpholinobut-2-enamide]"
0.3 nM,2400 nM,2900 nM,"COc1cc2ncnc(Nc3ccc(F)c(Cl)c3)c2cc1NC(=O)/C(F)=C\CN1CCOCC1 [Compound 22-2, (E)-N-(4-((3-chloro-4-fluorophenyl)amino)-7-methoxyquinazolin-6-yl)-2-fluoro-4-morpholinobut-2-enamide]"
